In US12145927B2 (BRISTOL-MYERS SQUIBB COMPANY, priority 2018, dated 2024):
“And” between values parts separate entries of the source, which are not always exact repeats. Identical values can stand only once.

Biological target: T1, human IDO1 (Homo sapiens, UniProt P14902)
T1 construct: expressed in transfected cells
Assay: IDO inhibition assay in human IDO1/HEK293 cells (IDO1 HEK Human)
Assay type: cell-based
Conditions: HEK293 cells stably expressing human IDO1; 20 hours incubation; absorbance at 490 nm after Ehrlich reagent
Protocol: HEK293 cells were transfected with a pCDNA-based mammalian expression vector harboring human IDO1 cDNA (NM 002164.2) by electroporation. They were cultured in medium (DMEM with 10% FBS) containing 1 mg/ml G418 for two weeks. Clones of HEK293 cells that stably expressed human IDO1 protein were selected and expanded for IDO inhibition assay.
The human IDO1/HEK293 cells were seeded at 10,000 cells per 50 μL per well with RPMI/phenol red free media contains 10% FBS in a 384-well black wall clear bottom tissue culture plate (Matrix Technologies LLC) 100 nL of certain concentration of compound was then added to each well using ECHO liquid handling systems. The cells were incubated for 20 hours in 37° C. incubator with 5% CO2.
The compound treatments were stopped by adding trichloroacetic acid (Sigma-Aldrich) to a final concentration at 0.2%. The cell plate was further incubated at 50° C. for 30 minute. The equal volume supernatant (20 μL) and 0.2% (w/v) Ehrlich reagent (4-dimethylaminobenzaldehyde, Sigma-Aldrich) in glacial acetic acid were mixed in a new clear bottom 384-well plate. This plate was then incubated at RT for 30 minute. The absorbance at 490 nm was measured on Envision plate reader.
Compound IC50 values were calculated using the counts of 500 nM of a reference standard treatment as one hundred percent inhibition, and counts of no compound but DMSO treatment as zero percent inhibition.

T1 sequence (P14902 whole entry): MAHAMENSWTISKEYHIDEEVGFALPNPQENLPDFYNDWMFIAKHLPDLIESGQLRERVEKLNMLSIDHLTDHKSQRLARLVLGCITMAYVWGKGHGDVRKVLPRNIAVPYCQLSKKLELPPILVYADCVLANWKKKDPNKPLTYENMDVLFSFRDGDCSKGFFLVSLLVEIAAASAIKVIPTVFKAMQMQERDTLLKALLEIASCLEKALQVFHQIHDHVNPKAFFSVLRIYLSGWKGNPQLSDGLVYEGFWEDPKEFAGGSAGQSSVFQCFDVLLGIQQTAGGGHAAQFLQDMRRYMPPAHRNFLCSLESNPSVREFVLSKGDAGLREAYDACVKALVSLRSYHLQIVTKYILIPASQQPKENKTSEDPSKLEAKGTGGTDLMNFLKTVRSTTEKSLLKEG

| IC50 | Compound |
| --- | --- |
| 28.6 nM | Cc1ccc(CC(=O)Nc2cc(-c3ccccc3-c3nnn[nH]3)cc3c2OCCCC3C(C)C)cc1 (single isomer, unassigned) [25 (En. 1), N-(7-(2-(1H-tetrazol-5-yl)phenyl)-5-isopropyl-2,3,4,5-tetrahydrobenzo[b]oxepin-9-yl)-2-(p-tolyl)acetamide] |
| 1450 nM | O=C(Nc1ccccc1F)Nc1cc(-c2ccccc2-c2nnn[nH]2)cc2c1OCCCC2c1ccccc1 (single isomer, unassigned) [10 (En. 1), 1-(7-(2-(1H-tetrazol-5-yl)phenyl)-5-phenyl-2,3,4,5-tetrahydrobenzo[b]oxepin-9-yl)-3-(2-fluorophenyl)urea] |
| 4.2 nM | c1ccc(C2CCCOc3c(Nc4nc5ccccc5o4)cc(-c4ccccc4-c4nnn[nH]4)cc32)cc1 (racemic) [Example 53, N-(7-(2-(1H-tetrazol-5-yl)phenyl)-5-phenyl-2,3,4,5-tetrahydrobenzo[b]oxepin-9-yl) benzo[d] oxazol-2-amine] |
| 7.1 nM | C=C[C@@H]1Oc2c(NC(=O)Nc3ccc(C)cc3)cc(-c3ccccc3-c3nnn[nH]3)cc2[C@H]1CCC(F)(F)F (single isomer, unassigned) [Example 101, 1-((trans)-5-(2-(1H-tetrazol-5-yl)phenyl)-3-(3,3,3-trifluoropropyl)-2-vinyl-2,3-dihydrobenzofuran-7-yl)-3-(p-tolyl)urea] |
| 4.4 nM | Cc1ccc(NC(=O)Nc2cc(-c3ccccc3-c3nnn[nH]3)cc3c2OCCCC3C(C)C)cc1 (racemic) [Example 24, 1-(7-(2-(1H-tetrazol-5-yl)phenyl)-5-isopropyl-2,3,4,5-tetrahydrobenzo[b]oxepin-9-yl)-3-(p-tolyl)urea] |
| 98.2 nM | Cc1ccc(CC(=O)Nc2cc(-c3ccccc3-c3nnn[nH]3)cc3c2OCCCC3c2ccccc2)cc1 (racemic) [Example 2-1, N-(7-(2-(1H-tetrazol-5-yl)phenyl)-5-phenyl-2,3,4,5-tetrahydrobenzo[b]oxepin-9-yl)-2-(p-tolyl)acetamide] |
| 1.2 nM | Cc1ccc(NC(=O)Nc2cc(-c3ccccc3-c3nc(=O)o[nH]3)cc3c2OCCCC3C2CC2)cc1 (single isomer, unassigned) [Example 33-1, 1-(5-cyclopropyl-7-(2-(5-oxo-2,5-dihydro-1,2,4-oxadiazol-3-yl)phenyl)-2,3,4,5-tetrahydrobenzo[b]oxepin-9-yl)-3-(p-tolyl)urea] |
| 1400 nM | Cc1ccc(NC(=O)Nc2cc(C(C)CC(=O)O)cc3c2O[C@H](C2CC2)[C@H]3c2ccccc2)cc1 (mixture of isomers) [Example 111, rac-3-((2R,3S)-2-cyclopropyl-3-phenyl-7-(3-(p-tolyl)ureido)-2,3-dihydrobenzofuran-5-yl)butanoic acid] |
| 28 nM | Cc1ccc(NC(=O)Nc2cc(-c3ccccc3-c3nnn[nH]3)cc3c2O[C@H](C)[C@H]3c2ccccc2)cc1 (relative stereo) [Example 115, rel-1-((2R,3 S)-5-(2-(1H-tetrazol-5-yl)phenyl)-2-methyl-3-phenyl-2,3-dihydrobenzofuran-7-yl)-3-(p-tolyl)urea] |
| 19 nM | C=C[C@H]1Oc2c(NC(=O)Nc3ccc(C)cc3)cc(-c3ccccc3-c3nnn[nH]3)cc2[C@@H]1CCC(F)(F)F (racemic) [Example 94, (+/−)-1-((trans)-5-(2-(1H-tetrazol-5-yl)phenyl)-3-(3,3,3-trifluoropropyl)-2-vinyl-2,3-dihydrobenzofuran-7-yl)-3-(p-tolyl)urea] |
| 21 nM | C=C[C@H]1Oc2c(NC(=O)Nc3ccc(C)cc3)cc(-c3ccccc3-c3nnn[nH]3)cc2[C@@H]1CCC(F)(F)F (single isomer, unassigned) [Example 100, 1-((trans)-5-(2-(1H-tetrazol-5-yl)phenyl)-3-(3,3,3-trifluoropropyl)-2-vinyl-2,3-dihydrobenzofuran-7-yl)-3-(p-tolyl)urea] |
| 7900 nM | C=CC1Oc2c(NC(=O)Nc3ccc(C)cc3)cc(C3(c4nnn[nH]4)CC3)cc2C1c1ccccc1 (racemic) [Example 112, (+/−)1-(5-(1-(1H-tetrazol-5-yl)cyclopropyl)-3-phenyl-2-vinyl-2,3-dihydrobenzofuran-7-yl)-3-(p-tolyl)urea] |
| 106 nM and 288 nM | Cc1ccc(NC(=O)Nc2cc(-c3ccccc3-c3nnn[nH]3)cc3c2OCCC(C)C3c2ccccc2)cc1 (single isomer, unassigned) [Example 45, 1-(7-(2-(1H-tetrazol-5-yl)phenyl)-4-methyl-5-phenyl-2,3,4,5-tetrahydrobenzo[b]oxepin-9-yl)-3-(p-tolyl)urea] |
| 7.6 nM | Cc1ccc(NC(=O)Nc2cc(-c3ccccc3-c3nnn[nH]3)cc3c2OCCCC3C2CC2)cc1 (racemic) [Example 36, 1-(7-(2-(1H-tetrazol-5-yl)phenyl)-5-cyclopropyl-2,3,4,5-tetrahydrobenzo[b]oxepin-9-yl)-3-(p-tolyl)urea] |
| 2290 nM | Cc1ccc(NC(=O)Nc2cc(-c3ccccc3S(=O)(=O)NC(=O)c3ccccc3)cc3c2OCCCC3c2ccccc2)cc1 (single isomer, unassigned) [Example 61, N-((2-(5-phenyl-9-(3-(p-tolyl)ureido)-2,3,4,5-tetrahydrobenzo[b]oxepin-7-yl)phenyl)sulfonyl)benzamide] |

Second part, the compound before the results:

| Compound | IC50 |
| --- | --- |
| Fc1ccc2nc(Nc3cc(-c4ccccc4-c4nnn[nH]4)cc4c3OCCCC4c3ccccc3)sc2c1 (single isomer, unassigned) [57 (En. 2), N-(7-(2-(1H-tetrazol-5-yl)phenyl)-5-phenyl-2,3,4,5-tetrahydrobenzo[b]oxepin-9-yl)-6-fluorobenzo[d]thiazol-2-amine] | 189 nM |
| CCC(C)C1CCCOc2c(NC(=O)Cc3ccc(C)cc3)cc(-c3ccccc3-c3nnn[nH]3)cc21 (single isomer, unassigned) [30 (En. 1), N-(7-(2-(1H-tetrazol-5-yl)phenyl)-5-(sec-butyl)-2,3,4,5-tetrahydrobenzo[b]oxepin-9-yl)-2-(p-tolyl)acetamide] | 4.1 nM |
| C=C[C@H]1Oc2c(NC(=O)Nc3ccc(C)cc3)cc(-c3ccccc3-c3nnn[nH]3)cc2[C@@H]1c1ccccc1 (single isomer, unassigned) [Example 88, 1-((trans)-5-(2-(1H-tetrazol-5-yl)phenyl)-3-phenyl-2-vinyl-2,3-dihydrobenzofuran-7-yl)-3-(p-tolyl)urea] | 105 nM |
| C=CC1Oc2c(NC(=O)Nc3ccccc3F)cc(-c3ccccc3-c3nnn[nH]3)cc2C1c1ccccc1 (racemic) [Example 95] | 88 nM |
| Cc1ccc(NC(=O)Nc2cc(-c3ccccc3C(=O)O)cc3c2OCCCC3c2ccccc2)cc1 (single isomer, unassigned) [Example 8-2, 2-(5-phenyl-9-(3-(p-tolyl)ureido)-2,3,4,5-tetrahydrobenzo[b]oxepin-7-yl)benzoic acid] | 970 nM |
| Cc1ccc(CC(=O)Nc2cc(-c3ccccc3-c3nnn[nH]3)cc3c2OCCC(C)C3c2ccccc2)cc1 (single isomer, unassigned) [Example 47, N-(7-(2-(1H-tetrazol-5-yl)phenyl)-4-methyl-5-phenyl-2,3,4,5-tetrahydrobenzo[b]oxepin-9-yl)-2-(p-tolyl)acetamide] | 282 nM |
| CC1(C)Oc2c(NC(=O)Nc3ccc(C(F)(F)F)nc3)cc(-c3ccccc3C(=O)O)cc2C1c1ccccc1 (racemic) [Example 128, (±)-2-(2,2-Dimethyl-3-phenyl-7-(3-(6-(trifluoromethyl)pyridin-3-yl)ureido)-2,3-dihydrobenzofuran-5-yl)benzoic acid] | 2300 nM |
| Cc1ccc(NC(=O)Nc2cc(-c3ccccc3-c3nnn[nH]3)cc3c2OCCC(C)C3c2ccccc2)cc1 (single isomer, unassigned) [Example 43, 1-(7-(2-(1H-tetrazol-5-yl)phenyl)-4-methyl-5-phenyl-2,3,4,5-tetrahydrobenzo[b]oxepin-9-yl)-3-(p-tolyl)urea] | 30.1 nM |
| CCC1Oc2c(NC(=O)Nc3ccc(C)cc3)cc(-c3ccccc3-c3nnn[nH]3)cc2C1CCC(F)(F)F (racemic) [Example 102] | 13 nM |
| Cc1ccc(NC(=O)Nc2cc(-c3cc(F)ccc3C(=O)O)cc3c2O[C@H](C)[C@H]3c2ccccc2)cc1 (relative stereo) [Example 116, rel-4-fluoro-2-((2R,3S)-2-methyl-3-phenyl-7-(3-(p-tolyl)ureido)-2,3-dihydrobenzofuran-5-yl)benzoic acid] | 125 nM |
| Cc1ccc(-c2nnn[nH]2)c(-c2cc(Nc3ccc(Cl)c(F)c3)c3c(c2)C(c2ccccc2)CCCO3)c1 (single isomer, unassigned) [Example 76, N-(4-chloro-3-fluorophenyl)-7-(5-methyl-2-(1H-tetrazol-5-yl)phenyl)-5-phenyl-2,3,4,5-tetrahydrobenzo[b]oxepin-9-amine] | 8.3 nM |
| O=C(Nc1ccc(F)cc1F)Nc1cc(-c2ccccc2-c2nnn[nH]2)cc2c1OCCCC2c1ccccc1 (stereo not shown) [Example 21, 1-(7-(2-(1H-tetrazol-5-yl)phenyl)-5-phenyl-2,3,4,5-tetrahydrobenzo[b]oxepin-9-yl)-3-(2,4-difluorophenyl)urea] | 177 nM |
| Cc1ccc(CC(=O)Nc2cc(-c3ccccc3-c3nnn[nH]3)cc3c2OCCC(C)C3c2ccccc2)cc1 (single isomer, unassigned) [Example 48, N-(7-(2-(1H-tetrazol-5-yl)phenyl)-4-methyl-5-phenyl-2,3,4,5-tetrahydrobenzo[b]oxepin-9-yl)-2-(p-tolyl)acetamide] | 12.5 nM |
